Calls of active or inactive are those of the source. The calls are words filed in the database; no cut-off is given here.
Key:
Cholinesterase [1] = molecular target: Cholinesterase (Equus caballus, UniProt P81908); assay: Inhibition of equine serum BChE using BTC as substrate incubated for 2 mins by Ellman's method; format: cell-free
Cholinesterase [2] = molecular target: Cholinesterase (Homo sapiens, UniProt P06276); assay: Inhibition of human BChE using BTC as substrate incubated for 2 mins by Ellman's method
Cholinesterase (Homo sapiens, UniProt P06276), sequence (P06276 whole entry): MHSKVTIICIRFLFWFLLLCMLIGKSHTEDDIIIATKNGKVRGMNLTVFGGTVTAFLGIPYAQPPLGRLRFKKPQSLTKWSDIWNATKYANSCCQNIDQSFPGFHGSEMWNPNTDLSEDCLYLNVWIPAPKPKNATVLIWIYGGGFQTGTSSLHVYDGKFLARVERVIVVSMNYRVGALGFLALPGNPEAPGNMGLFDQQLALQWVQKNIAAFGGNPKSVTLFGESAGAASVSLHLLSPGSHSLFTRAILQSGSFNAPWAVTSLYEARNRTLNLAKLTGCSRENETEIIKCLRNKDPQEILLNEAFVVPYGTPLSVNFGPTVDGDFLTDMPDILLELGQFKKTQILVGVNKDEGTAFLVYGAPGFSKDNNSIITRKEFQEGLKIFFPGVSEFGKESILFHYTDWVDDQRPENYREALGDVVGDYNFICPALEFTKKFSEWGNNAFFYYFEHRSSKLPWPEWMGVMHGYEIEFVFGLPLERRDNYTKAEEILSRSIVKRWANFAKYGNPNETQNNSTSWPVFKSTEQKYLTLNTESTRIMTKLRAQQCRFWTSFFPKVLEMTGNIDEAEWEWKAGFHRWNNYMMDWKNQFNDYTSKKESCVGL

[3] = molecular target: Acetylcholinesterase (Electrophorus electricus) (UniProt O42275); assay: Inhibition of electric eel AChE using ATC as substrate at 10 uM incubated for 2 mins by Ellman's method relative to control
Acetylcholinesterase (Electrophorus electricus), sequence (O42275 24-633 limits assumed): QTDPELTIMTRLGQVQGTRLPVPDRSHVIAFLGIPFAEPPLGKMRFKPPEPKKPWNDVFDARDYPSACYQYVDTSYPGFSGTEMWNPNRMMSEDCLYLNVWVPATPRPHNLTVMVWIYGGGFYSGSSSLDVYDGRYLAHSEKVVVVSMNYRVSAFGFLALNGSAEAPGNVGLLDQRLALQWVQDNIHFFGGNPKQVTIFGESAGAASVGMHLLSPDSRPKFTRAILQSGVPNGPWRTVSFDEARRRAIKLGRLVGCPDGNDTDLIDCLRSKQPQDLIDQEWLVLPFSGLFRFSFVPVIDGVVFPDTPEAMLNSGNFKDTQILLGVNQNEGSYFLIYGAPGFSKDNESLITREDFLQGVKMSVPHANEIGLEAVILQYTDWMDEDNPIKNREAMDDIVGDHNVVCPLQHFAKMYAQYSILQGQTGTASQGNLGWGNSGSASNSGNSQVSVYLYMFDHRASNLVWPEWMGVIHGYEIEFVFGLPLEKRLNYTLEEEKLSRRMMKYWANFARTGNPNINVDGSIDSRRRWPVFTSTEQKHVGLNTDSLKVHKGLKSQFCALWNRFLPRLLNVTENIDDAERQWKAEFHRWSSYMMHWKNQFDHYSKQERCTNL

[4] = Metabolic stability in human liver microsomes assessed as half life at 2 uM incubated for 60 mins by LC-MS/MS analysis; format: ADME, Microsome
[5] = Half life in Sprague-Dawley rat at 10 mg/kg, IG measured for 2880 mins by LC-MS/MS analysis; format: ADME, organism-based; settings: in vivo, po
[6] = Cmax in Sprague-Dawley rat at 10 mg/kg, IG measured for 2880 mins by LC-MS/MS analysis; format: ADME, organism-based; settings: in vivo, po
[7] = AUC (0 to t) in Sprague-Dawley rat at 10 mg/kg, IG measured for 2880 mins by LC-MS/MS analysis; format: ADME, organism-based; settings: in vivo, po
[8] = MRT (infinity) in Sprague-Dawley rat at 10 mg/kg, IG measured for 2880 mins by LC-MS/MS analysis; format: ADME, organism-based; settings: in vivo, po
[9] = Oral bioavailability in Sprague-Dawley rat at 10 mg/kg, IG or 10 mg/kg, iv measured for 2880 mins by LC-MS/MS analysis; format: ADME, organism-based; settings: in vivo
[10] = Half life in Sprague-Dawley rat at 10 mg/kg, iv measured for 2880 mins by LC-MS/MS analysis; format: ADME, organism-based; settings: in vivo, 48 h
[11] = Tmax in Sprague-Dawley rat at 10 mg/kg, iv measured for 2880 mins by LC-MS/MS analysis; format: ADME, organism-based; settings: in vivo
[12] = MRT (infinity) in Sprague-Dawley rat at 10 mg/kg, iv measured for 2880 mins by LC-MS/MS analysis; format: ADME, organism-based; settings: in vivo, 48 h
[13] = Drug concentration in brain of ICR mouse at 10 mg/kg, IG measured at about 22 mins by LC-MS/MS analysis; format: ADME, organism-based; settings: po, read-out: Ct
[14] = Half life in plasma of ICR mouse at 10 mg/kg, IG measured at 10 to 240 mins by LC-MS/MS analysis; format: ADME, organism-based; settings: in vivo, po, time 10-240 min
[15] = Tmax in plasma of ICR mouse at 10 mg/kg, IG measured at 10 to 240 mins by LC-MS/MS analysis; format: ADME, organism-based; settings: in vivo, po, time 10-240 min
[16] = Half life in brain of ICR mouse at 10 mg/kg, IG measured at 10 to 240 mins by LC-MS/MS analysis; format: ADME, organism-based; settings: po, time 10-240 min
[17] = Cmax in brain of ICR mouse at 10 mg/kg, IG measured at 10 to 240 mins by LC-MS/MS analysis; format: ADME, organism-based; settings: po, time 10-240 min
[18] = Ratio of Cmax in brain to plasma of ICR mouse at 10 mg/kg, IG measured at 10 to 240 mins by LC-MS/MS analysis; format: ADME, organism-based; settings: po, time 10-240 min
[19] = Neurotoxicity against human SH-SY5Y cells by MTT assay; format: toxicity, cell-based
[20] = Neurotoxicity against mouse BV-2 cells by MTT assay; format: toxicity, cell-based
BV-2 [21] = assay: Anti-inflammatory activity against mouse BV-2 cells assessed as decrease in LPS-induced IFN-gamma level at 2 to 6 uM preincubated for 1 hr followed by LPS addition and incubated overnight by ELISA; format: functional, cell-based; settings: dose 2-6 µM
PC-12 = assay: Neuroprotective activity against H2O2-induced neuronal damage in rat PC12 cells assessed as increase in cell viability at 20 uM pretreated for 1 hr followed by H2O2 addition measured after 24 hrs by MTT assay relative to control; format: functional; settings: time 25 hrs
SH-SY5Y = assay: Neuroprotective activity against Amyloid beta(1 to 42)-induced neuronal damage in human SH-SY5Y cells assessed as increase in cell survival at 1 to 10 uM pretreated for 1 hr followed by Amyloid beta(1 to 42) addition measured after 24 hrs by MTT assay; format: functional, cell-based; settings: dose 1-10 µM, time 25.0 hrs
BV-2 [22] = assay: Inhibition of ROS production in Amyloid beta(1 to 42)-induced neuronal damage in mouse BV-2 cells assessed as decrease in green fluorescence intensity at 5 uM by microscopic analysis; format: functional, cell-based
BV-2 [23] = assay: Inhibition of ROS production in LPS-induced mouse BV-2 cells assessed as decrease in green fluorescence intensity at 2.5 to 10 uM pretreated for 1 hr followed by LPS addition and incubated overnight by DCFH-DA staining based analysis; format: functional, cell-based; settings: dose 2.5-10 µM
BV-2 [24] = assay: Anti-inflammatory activity against mouse BV-2 cells assessed as decrease in LPS-induced IL-6 level at 2 to 6 uM preincubated for 1 hr followed by LPS addition and incubated overnight by ELISA; format: functional, cell-based; settings: dose 2-6 µM
BV-2 [25] = assay: Anti-inflammatory activity against mouse BV-2 cells assessed as decrease in LPS-induced TNF-alpha level at 5 uM preincubated for 1 hr followed by LPS addition and incubated overnight by immunofluorescence based analysis; format: functional, cell-based
[26] = Toxicity in ICR mouse assessed as animal death administered orally; settings: in vivo, po
[27] = Toxicity in ICR mouse assessed as abnormal behaviour administered orally; settings: in vivo, po
[28] = Toxicity in ICR mouse model of Amyloid beta(1 to 42)-induced cognitive impairment assessed as change in body appearance at 10 mg/kg, IG for 12 days; format: organism-based; settings: in vivo, po, 288 h, time 12 day
Mus musculus [29] = assay: Improvement of learning ability in ICR mouse model of Amyloid beta(1 to 42)-induced cognitive impairment at 10 mg/kg, IG for 12 days by Moris water maze test; format: functional, organism-based; settings: time 12.0 day
Mus musculus [30] = assay: Neuroprotective activity in ICR mouse model of Amyloid beta(1 to 42)-induced cognitive impairment assessed as decrease in Amyloid beta expression in brain at 10 mg/kg, IG for 12 days by ELISA; format: functional, organism-based; settings: time 12.0 day
Mus musculus [31] = assay: Anti-inflammatory activity in ICR mouse model assessed as reversal of LPS-induced body weight loss at 10 mg/kg, IG pretreated for 10 days followed by LPS treatment for 4 days; format: functional, organism-based; settings: time 14.0 day
Mus musculus [32] = assay: Anti-inflammatory activity in ICR mouse model assessed as reduction in trajectory confusion at 10 mg/kg, IG pretreated for 10 days followed by LPS treatment for 4 days by Moris water maze test; format: functional, organism-based; settings: time 14.0 day
Mus musculus [33] = assay: Anti-inflammatory activity in ICR mouse model assessed as reduction in serum TNF-alpha level at 10 mg/kg, IG pretreated for 10 days followed by LPS treatment for 4 days by ELISA; format: functional, organism-based; settings: time 14.0 day
Mus musculus [34] = assay: Anti-inflammatory activity in ICR mouse model assessed as reduction in brain TNF-alpha level at 10 mg/kg, IG pretreated for 10 days followed by LPS treatment for 4 days by ELISA; format: functional, organism-based; settings: time 14.0 day
Mus musculus [35] = assay: Anti-inflammatory activity in ICR mouse model assessed as reduction in brain IL-1beta level at 10 mg/kg, IG pretreated for 10 days followed by LPS treatment for 4 days by ELISA; format: functional, organism-based; settings: time 14.0 day

Cholinesterase (Equus caballus, UniProt P81908), sequence (P81908 whole entry): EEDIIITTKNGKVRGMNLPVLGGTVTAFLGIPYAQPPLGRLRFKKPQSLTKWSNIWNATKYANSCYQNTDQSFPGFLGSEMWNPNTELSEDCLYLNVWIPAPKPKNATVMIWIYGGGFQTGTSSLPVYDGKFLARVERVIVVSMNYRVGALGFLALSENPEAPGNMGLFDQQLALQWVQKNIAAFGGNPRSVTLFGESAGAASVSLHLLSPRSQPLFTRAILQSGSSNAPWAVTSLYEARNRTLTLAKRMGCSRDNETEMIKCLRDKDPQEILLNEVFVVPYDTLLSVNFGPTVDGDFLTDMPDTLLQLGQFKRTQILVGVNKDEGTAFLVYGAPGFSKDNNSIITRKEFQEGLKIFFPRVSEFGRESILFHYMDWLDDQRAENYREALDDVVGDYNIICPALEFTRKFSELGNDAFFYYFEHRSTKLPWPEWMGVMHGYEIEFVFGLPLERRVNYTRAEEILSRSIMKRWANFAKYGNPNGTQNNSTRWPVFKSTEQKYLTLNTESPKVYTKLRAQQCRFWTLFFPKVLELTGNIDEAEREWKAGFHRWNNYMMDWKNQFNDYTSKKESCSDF

## CCCc1ccc(C(=O)Nc2cnc3ccccc3c2N2CCN(Cc3ccccc3)CC2)cc1
Cholinesterase [1]
  IC50: 0.06 µM
Cholinesterase [2]
  IC50: 0.16 µM
[3]
  inhibition: < 50%
[4]
  half-life at 2 µM: 0.762 h
[5]
  half-life: 2.81 h
[6]
  Cmax: 1.38 µg/mL
[7]
  AUC(0-t) at 48 h: 5.65 µg·h/mL
[8]
  MRT inf: 17.8 h
[9]
  bioavailability: 92.3%
[10]
  t1/2: 5.047 h
[11]
  Tmax: 1 min
[12]
  MRT: 16.45 h
[13]
  concentration at 22 min: 0.554 µg/mL
[14]
  t1/2: 1.09 h
[15]
  Tmax: 0.3 h
[16]
  half-life: 1.6 h
[17]
  Cmax: 0.554 µg/mL
[18]
  Kp: 2.33
[19]
  Activity: Not Active
[20]
  Activity: Not Active
BV-2 [21]
  Activity: Active
PC-12
  Activity: >80%
SH-SY5Y
  Activity: Active
BV-2 [22]
  inhibition: Active
BV-2 [23]
  inhibition: Active
BV-2 [24]
  Activity: Active
BV-2 [25]
  Activity: Active
[26]
  Activity: Non-Toxic
[27]
  Activity: Non-Toxic
[28]
  Activity: Non-Toxic
Mus musculus [29]
  Activity: Active
Mus musculus [30]
  Activity: Active
Mus musculus [31]
  Activity: Active
Mus musculus [32]
  Activity: Active
Mus musculus [33]
  Activity: Active
Mus musculus [34]
  Activity: Active
Mus musculus [35]
  Activity: Active

— ChEMBL document CHEMBL5500378, “Discovery of 4-benzylpiperazinequinoline BChE inhibitor that suppresses neuroinflammation for the treatment of Alzheimer's disease” (Eur J Med Chem, 2024)
